Experimental findings from ChEMBL document CHEMBL1201862, “PubChem BioAssay data set” (2004) are described below.

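Dose response: 5 concentrations. Exposure: 48 h. Format: 96-well plates. Endpoint: linear interpolation; highest concentration if not reached. The concentration for 50% growth inhibition is given as GI50.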 Active and inactive are the calls of the source. No stated cut-off is given here; in the data, active = GI50 up to about 1.1 µM and inactive = higher.

Among the test systems are SF-268; HL-60; COLO 205; OVCAR-8; SW-620; UO-31; A549; MDA-MB-435; UACC-62; HOP-62; OVCAR-3; SR; SK-MEL-28; PC-3; NCI-H460; SNB-75; HCT-15; HCC 2998; RXF 393; NCI-H522.
Test in all cases: growth of human tumour cells (NCI), 48 h

With `COc1ccc2[nH]c(C(=O)N3CC(CCl)c4c3cc(N)c3ccccc43)cc2c1` (stereo not drawn), the GI50 in the test with SF-268 was < 0.01 µM (active); in the test with HL-60, < 0.01 µM (active); with COLO 205, < 0.0105 µM (active); in the test with OVCAR-8, < 0.01 µM (active); with SW-620, < 0.01 µM (active); in the test on UO-31, < 0.01 µM (active). The GI50 in the test on A549 is < 0.01 µM (active); with MDA-MB-435, 0.0118 µM (active); in the test on UACC-62 it was < 0.01 µM (active); with HOP-62, < 0.01 µM (active); in the test with OVCAR-3, 0.0139 µM (active); in the test with SR, < 0.01 µM (active). Moreover, the GI50 in the test with SK-MEL-28 was 0.0142 µM (active); in the test with PC-3, < 0.01 µM (active); in the test with NCI-H460, < 0.01 µM (active); with SNB-75, < 0.01 µM (active); in the test with HCT-15 it was under 0.01 µM; with HCC 2998 it was < 0.01 µM (active). The GI50 with RXF 393 is < 0.01 µM (active).
Turning to `CN(C)CCNC(=O)c1cccc2[nH]c(-c3ccncc3)nc12`, the GI50 with SF-268 was 11.4 µM (inactive); with HL-60, 1.01 µM (active); with COLO 205, 1.6 µM (inactive); with OVCAR-8, 6.68 µM (inactive); in the test with SW-620, 3.19 µM (inactive); in the test on NCI-H522 it was 1.88 µM (inactive). Moreover, the GI50 in the test with UO-31 is 2.77 µM (inactive); in the test on A549, 5.78 µM (inactive); in the test on MDA-MB-435, 1.84 µM (inactive); in the test on UACC-62, 2.96 µM (inactive); with HOP-62 it was 18.7 µM (inactive); in the test with OVCAR-3, 9.62 µM (inactive). The GI50 is 3.38 µM (inactive) with SR; 1.86 µM (inactive) in the test with SK-MEL-28; 3.83 µM (inactive) with PC-3; 2.78 µM (inactive) in the test with NCI-H460; 7.33 µM (inactive) in the test on SNB-75; 2.89 µM with HCT-15. Besides, the results for the GI50 in the test with HCC 2998 and with RXF 393 were 1.95 µM (inactive) and 5.58 µM (inactive), respectively.
`CO[C@](C(=O)OC[C@H]1[C@@H](COC(C)=O)[C@@H]2O[C@H]1c1cc3c(cc12)OCO3)(c1ccccc1)C(F)(F)F`: the GI50 is 30.7 µM (inactive) with SF-268; 28.6 µM (inactive) in the test with COLO 205; 95.9 µM (inactive) in the test with SW-620; 4.26 µM (inactive) with NCI-H522; 10.4 µM (inactive) in the test with UO-31; 17.5 µM (inactive) in the test with A549. For the same molecule, the GI50 with MDA-MB-435 is 38.5 µM (inactive); with UACC-62 it was 19.6 µM (inactive); in the test on HOP-62, 26.2 µM (inactive); with OVCAR-3, 27 µM (inactive); with SR it was 21.2 µM (inactive); in the test with SK-MEL-28, 41.3 µM (inactive). Also, the GI50 in the test on PC-3 was 19.4 µM (inactive); in the test with NCI-H460, 13.4 µM (inactive); in the test on SNB-75 it was 20.4 µM (inactive); with HCT-15 it was 7.46 µM; with HCC 2998, 23.8 µM (inactive).
`O=C1NC(O)c2cc3ccccc3cc2O1` (stereo not drawn): the GI50 in the test with SF-268 is 61.7 µM (inactive); in the test on HL-60 it was 28.4 µM (inactive); with COLO 205, > 100 µM (inactive); in the test with OVCAR-8, 39.2 µM (inactive); in the test on SW-620 it was 61.1 µM (inactive); in the test with NCI-H522, > 100 µM (inactive). Besides, the GI50 in the test on UO-31 is > 100 µM (inactive); in the test with A549, > 100 µM (inactive); in the test on MDA-MB-435, 51.8 µM (inactive); with UACC-62, 21.7 µM (inactive); in the test with HOP-62 it was > 100 µM (inactive); in the test on OVCAR-3, 26.4 µM (inactive). In addition, the GI50 in the test with SR was 24.3 µM (inactive); with SK-MEL-28 it was 69.8 µM (inactive); in the test on PC-3, 31.1 µM (inactive); in the test on NCI-H460, > 100 µM (inactive); with SNB-75, 79.6 µM (inactive); in the test on HCT-15 it was 19.1 µM. The GI50 in the test with HCC 2998 and with RXF 393 was > 100 µM (inactive) each time.
As for `c1ccc(C2=NCCN2)c(C2=NCCN2)c1`, the GI50 with SF-268, in the test on HL-60, with COLO 205, in the test with OVCAR-8, in the test with SW-620 and with NCI-H522 was > 100 µM (inactive) throughout. Besides, the GI50 in the test on UO-31, in the test with A549, with MDA-MB-435, in the test on UACC-62, in the test with HOP-62 and with OVCAR-3 was > 100 µM (inactive) each time. Besides, the GI50 in the test with SR is > 100 µM (inactive); in the test with SK-MEL-28 it was > 100 µM (inactive); in the test with PC-3, > 100 µM (inactive); with NCI-H460, > 100 µM (inactive); in the test with SNB-75, > 100 µM (inactive); in the test on HCT-15 it was 44.1 µM. Also, the GI50 in the test on HCC 2998 is 57.3 µM (inactive); with RXF 393, > 100 µM (inactive).
Regarding `COc1ccc2oc3c(ccc[n+]3C)c(=O)c2c1`, the GI50 in the test on SF-268, in the test on HL-60, in the test with COLO 205, with OVCAR-8, in the test on SW-620 and with NCI-H522 was > 100 µM (inactive) each time. The GI50 with UO-31, with A549, in the test on MDA-MB-435, in the test on UACC-62, with HOP-62 and with OVCAR-3 was > 100 µM (inactive) each time. The GI50 is > 100 µM (inactive) in the test on SR; > 100 µM (inactive) with SK-MEL-28; > 100 µM (inactive) with PC-3; > 100 µM (inactive) in the test on NCI-H460; > 100 µM (inactive) in the test on SNB-75; over 100 µM in the test on HCT-15. Further, the GI50 with HCC 2998 and in the test on RXF 393 was > 100 µM (inactive) each time.
For the molecule `O=c1cnn(C/C=C/CP(=O)(O)O)c(=O)[nH]1`, the GI50 with SF-268 was > 100 µM (inactive); in the test with HL-60, > 100 µM (inactive); in the test with COLO 205, 80 µM (inactive); with OVCAR-8, > 100 µM (inactive); in the test on SW-620, > 100 µM (inactive); with NCI-H522, > 100 µM (inactive). Further, the GI50 with UO-31, in the test with A549, in the test on MDA-MB-435, with HOP-62, in the test on OVCAR-3 and in the test with SR was > 100 µM (inactive) throughout. Further, the GI50 in the test with SK-MEL-28 is > 100 µM (inactive); in the test with PC-3 it was > 100 µM (inactive); in the test on NCI-H460, > 100 µM (inactive); in the test on SNB-75, > 100 µM (inactive); in the test with HCT-15, over 100 µM; in the test on HCC 2998 it was > 100 µM (inactive). The GI50 in the test on RXF 393 was > 100 µM (inactive).
In the case of `COc1ccc2c(=O)c(O)c(-c3ccc(OC)c(OC)c3)oc2c1`, the GI50 in the test with SF-268 was 4.84 µM (inactive); with HL-60, 1.66 µM (inactive); in the test on COLO 205, 28.9 µM (inactive); in the test with OVCAR-8, 3.71 µM (inactive); in the test with SW-620 it was 4.97 µM (inactive); in the test on NCI-H522, 3.13 µM (inactive). For the same molecule, the GI50 in the test on UO-31 was 2.47 µM (inactive); with A549, 4.92 µM (inactive); in the test on MDA-MB-435, 4.51 µM (inactive); in the test on UACC-62, 3.23 µM (inactive); with HOP-62, 3.98 µM (inactive); in the test with OVCAR-3, 2.84 µM (inactive). Also, the GI50 was 4.08 µM (inactive) in the test on SR; 8.53 µM (inactive) in the test on SK-MEL-28; 9.38 µM (inactive) in the test on PC-3; 3.35 µM (inactive) in the test with NCI-H460; 3.5 µM in the test with HCT-15; 27.9 µM (inactive) in the test on HCC 2998.
`CN(C)CCNc1ccc2nnn3c4ccc(O)cc4c(=O)c1c23`: the GI50 with SF-268 was 5.38 µM (inactive); in the test on HL-60, 1.71 µM (inactive); with COLO 205 it was 3.39 µM (inactive); with OVCAR-8, 1.73 µM (inactive); in the test with SW-620, 1.09 µM (active); in the test on NCI-H522, 3.12 µM (inactive). In addition, the GI50 in the test with UO-31 was 2.22 µM (inactive); with A549, 0.598 µM (active); in the test on MDA-MB-435 it was 4.07 µM (inactive); with UACC-62, 4.74 µM (inactive); with HOP-62, 1.39 µM (inactive); in the test on OVCAR-3, 5.73 µM (inactive). Besides, the GI50 was 0.18 µM (active) in the test with SR; 10.9 µM (inactive) in the test with SK-MEL-28; 1.46 µM (inactive) with PC-3; 0.498 µM (active) in the test on NCI-H460; 9.57 µM (inactive) in the test on SNB-75; 1.29 µM with HCT-15. Moreover, the GI50 with HCC 2998 was 5.48 µM (inactive); with RXF 393, 1.68 µM (inactive).
